Source: US4390613A, “Diffusion transfer photographic system utilizing substituted phenylmercaptoazoles” (Polaroid Corporation, priority 1981, dated 1983)
Read-outs that look alike come from different tables or passages of the source.

Key:
[1] = Solubility of silver salts in presence of excess anion (Table III); type: physicochemical
Procedure: The solubilities of the silver salts of PMT and compound II in the presence of excess amounts of their anions were measured at pH 7.0 and 13.5. Each solution was 4×10^-3 molar in silver. The results are shown in Table III wherein the solubility data is expressed in μmoles/liter of total silver.

[2] = Solubility product of the silver salts (Table II); type: physicochemical; settings: for Ksp: silver salt
Description: Solubility product measurements were made for the silver salt of phenylmercaptotetrazole (PMT) at pH 13.5 and for the silver salt of compound II at pH 7 and pH 13.5 (above and below the pka of the oxime substituent).

[3] = silver salt, pH 7; Z. C. H. Tan, Photogr. Sci. Eng. 19, 17 (1975); cited from earlier work
[4] = Ionization and stability in aqueous alkaline processing composition; type: physicochemical
Description: However, it has been shown by experimentation that incorporating compound XI in a film unit according to the invention will provide advantageous results. Thus, it would appear that compound XI undergoes a change in aqueous alkaline processing composition and that the acetyl substituent is a precursor of a group which has the requisite properties described above which provide the desired results. […] It is therefore preferred to incorporate the compound elsewhere in the film unit, for example, in the photosensitive element.

Compound | silver solvent behavior at high pH [1] | effect of pH / ionization on solubility of the silver salt ([2]; pH 7 vs pH 13.5) | Ksp ([2]; pH 7) | Ksp ([2]; pH 13.5) | Ksp [3] | stability in aqueous alkaline processing composition ([4]; about a week or more in processing composition) | ionization of acetyl group to an anion ([4]; aqueous alkaline photographic processing composition)
CC(=NO)c1ccc(-n2nnnc2S)cc1 [Compound II] | weak to moderate silver solvent at high pH | increased the solubility of the silver salt of compound II by an order of magnitude | ~ 1 × 10^-16 | 2 × 10^-15 | – | – | –
Sc1nnnn1-c1ccccc1 [PMT, 1-phenyl-5-mercaptotetrazole, reference compound] | PMT is not | – | – | 4 × 10^-16 | 3 × 10^-16 | – | –
CC(=O)c1ccc(-n2nnnc2S)cc1 [XI] | – | – | – | – | – | long term instability characteristics | does not ionize to any appreciable extent
